# Test results as given in publication PMC10261046, “Mechanism of small molecule inhibition of Plasmodium falciparum myosin A informs antimalarial drug design” (Nature Communications, 2023).
# Assays:
# [1] = target: T1, PfMyoA (Plasmodium falciparum myosin A) (Plasmodium falciparum, UniProt Q8IDR3); assay: X-ray crystal structure, […] Å; type: binding; set-up: gene MyoA; with PfELC and PfMTIP light chains
# Target sequence in this assay (Q8IDR3 whole entry): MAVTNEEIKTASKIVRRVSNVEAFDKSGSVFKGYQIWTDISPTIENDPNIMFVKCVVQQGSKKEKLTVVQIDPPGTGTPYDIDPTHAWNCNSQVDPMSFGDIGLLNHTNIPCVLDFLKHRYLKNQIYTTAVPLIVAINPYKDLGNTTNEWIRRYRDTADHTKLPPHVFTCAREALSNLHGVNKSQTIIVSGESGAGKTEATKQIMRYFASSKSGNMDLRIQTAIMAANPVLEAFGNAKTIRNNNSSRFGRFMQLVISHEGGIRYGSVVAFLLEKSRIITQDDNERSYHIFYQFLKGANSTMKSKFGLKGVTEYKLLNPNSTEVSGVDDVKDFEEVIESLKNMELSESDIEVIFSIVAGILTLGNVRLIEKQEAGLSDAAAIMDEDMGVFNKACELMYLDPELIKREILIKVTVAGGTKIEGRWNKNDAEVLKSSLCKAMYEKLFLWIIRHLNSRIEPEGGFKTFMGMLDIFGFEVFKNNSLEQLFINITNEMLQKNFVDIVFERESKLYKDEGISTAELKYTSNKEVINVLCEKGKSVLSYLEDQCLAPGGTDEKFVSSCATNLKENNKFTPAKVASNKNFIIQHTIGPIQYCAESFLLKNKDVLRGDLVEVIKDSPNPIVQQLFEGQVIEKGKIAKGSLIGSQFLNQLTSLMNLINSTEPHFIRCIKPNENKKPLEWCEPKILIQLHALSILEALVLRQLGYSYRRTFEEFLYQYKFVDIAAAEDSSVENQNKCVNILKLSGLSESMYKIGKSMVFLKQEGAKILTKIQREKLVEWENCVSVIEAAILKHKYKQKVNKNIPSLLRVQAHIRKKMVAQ
# Target sequence in this assay (Q8I4W8 entry or part of it, further chain): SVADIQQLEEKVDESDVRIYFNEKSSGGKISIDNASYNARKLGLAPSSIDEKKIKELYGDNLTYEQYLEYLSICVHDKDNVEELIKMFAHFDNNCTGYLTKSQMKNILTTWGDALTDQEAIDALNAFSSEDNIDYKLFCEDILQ
# Target sequence in this assay (Q8IJM4 entry or part of it, further chain): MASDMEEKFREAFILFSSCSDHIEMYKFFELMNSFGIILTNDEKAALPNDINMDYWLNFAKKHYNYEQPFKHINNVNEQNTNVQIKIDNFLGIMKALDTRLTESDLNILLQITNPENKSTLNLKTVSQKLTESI
# [2] = target: T1, PfMyoA (Plasmodium falciparum myosin A); assay: X-ray crystal structure, […] Å; type: binding; set-up: gene MyoA; with PfELC and PfMTIP light chains; remark: listed apart in the source
# Target sequence in this assay (Q8IDR3 whole entry): as the sequence (Q8IDR3 whole entry) above
# Target sequence in this assay (Q8IJM4 entry or part of it, further chain): as the sequence (Q8IJM4 entry or part of it, further chain) above
# PfMyoA triple mutant = target: T2, PfMyoA triple mutant (Plasmodium falciparum, UniProt Q8IDR3, F270Y/F471A/F645H); assay: basal ATPase assay (NADH-linked); type: biochemical
# T2 construct: gene MyoA; full length PfMyoA heavy chain triple mutant, co-expressed with light chains PfELC and PfMTIP; with PfELC and PfMTIP light chains
# T2 sequence (Q8I4W8 whole entry, stated change not applied): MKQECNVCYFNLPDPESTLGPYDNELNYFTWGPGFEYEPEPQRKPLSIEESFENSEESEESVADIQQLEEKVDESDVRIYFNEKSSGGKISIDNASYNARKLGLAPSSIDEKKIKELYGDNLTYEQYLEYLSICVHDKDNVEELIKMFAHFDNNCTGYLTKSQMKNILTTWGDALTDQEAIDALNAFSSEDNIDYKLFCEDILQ
# T2 sequence (Q8IDR3 whole entry, stated change not applied): as the sequence (Q8IDR3 whole entry) above
# T2 sequence (Q8IJM4 whole entry, stated change not applied, further chain): as the sequence (Q8IJM4 entry or part of it, further chain) above
# [3] = target: T1, PfMyoA (Plasmodium falciparum myosin A); assay: X-ray crystal structure ([…] Å) and affinity measurement for nucleotide-free PfMyoA; also basal and actin-activated ATPase inhibition (IC50 […]); type: binding; set-up: gene MyoA; with PfELC and PfMTIP light chains
# Target sequence in this assay (Q8IDR3 whole entry): as the sequence (Q8IDR3 whole entry) above
# Target sequence in this assay (Q8IJM4 entry or part of it, further chain): as the sequence (Q8IJM4 entry or part of it, further chain) above
# Target sequence in this assay (Q8I4W8 entry or part of it, further chain): as the sequence (Q8I4W8 whole entry, stated change not applied) above
# [4] = target: T1, PfMyoA (Plasmodium falciparum myosin A); assay: stopped-flow fluorescence transient kinetics; Kd printed in text is in the presence of […] KNX-002; type: binding; set-up: gene MyoA; full length PfMyoA heavy chain with light chains; with PfELC and PfMTIP light chains
# Target sequence in this assay (Q8IDR3 whole entry): as the sequence (Q8IDR3 whole entry) above
# Target sequence in this assay (Q8IJM4 entry or part of it, further chain): as the sequence (Q8IJM4 entry or part of it, further chain) above
# Target sequence in this assay (Q8I4W8 entry or part of it, further chain): as the sequence (Q8I4W8 whole entry, stated change not applied) above
compound,measurement,setting,value
Nc1ncnc2c1ncn2[C@@H]1O[C@H](COP(=O)(O)OP(=O)(O)O)[C@@H](O)[C@H]1O [ADP],"X-ray crystal structure, 2.03 Å",[1],the substrate was hydrolyzed in PfMyoA/ATPγS/Apo leaving only Mg.ADP in the active site
Nc1ncnc2c1ncn2[C@@H]1O[C@H](CO[P@](=O)(O)O[P@](=O)(O)O[P@@](=O)(O)S)[C@@H](O)[C@H]1O [ATPγS],"X-ray crystal structure, 2.2 Å",[2],unhydrolyzed Mg.ATPyS occupies the active site of PfMyoA/ATPγS/KNX-002
COc1ccc(C2(NCc3c[nH]nc3-c3cccs3)CC2)cc1 [KNX-002],IC50,PfMyoA triple mutant,52 µM
same,Kd,[3],8.6 µM
mant-ADP,Kd,[4],3.5 µM
